# Test results taken from patent US20190338251A1, “Skeletal Muscle Precursor Cells and Production Method for Skeletal Muscle Cells” (Takeda Pharmaceutical Company Limited, priority 2016, published 2019).
# Columns and labels:
# Assay type in all cases: cell-based, human
# 253G1 cells [1] = assay: Study on reagent to be added: fluorescent immunostaining of induced myotube and skeletal muscle cells; details: for use of one reagent instead of the reference reagent (CHIR or SB) for induction: 0.5 μM BIO or 10 μM 5B216763 instead of CHIR; for use of one reagent instead of the reference reagent (CHIR or SB) for induction / use of one reagent instead of the reference reagent (SB or FSK) for induction: 1 μM A83-01 instead of SB; for use of combined replacement reagents for induction: several reference reagents (CHIR, SB, DM, FSK) replaced at once; for use of two reagents instead of SB and DM for induction / use of one reagent instead of the reference reagent (SB or FSK) for induction: fibronectin-coated vessel (section 5-2); for use of two reagents instead of SB and DM for induction: 1 μM A83-01 and 0.1 μM LDN193189; for use of one reagent instead of the reference reagent (SB or FSK) for induction: 50 μM dbcAMP instead of FSK
# Description: (§1) According to Reference Example 1, 253G1 cells were plated over a Matrigel-coated culture vessel. Two days thereafter, the E8 medium was replaced with B-27 medium supplemented with 5 μM CHIR and 1% AA to start differentiation (the starting day of differentiation was defined as day 0 of differentiation).
# On day 2 of differentiation, the medium was replaced with B-27 medium supplemented with 1% AA, 10 μM SB and 0.5 μM DM. On day 4 of differentiation, the medium was further replaced with B-27 medium supplemented with 1% AA and 10 μM FSK. The culture was continued until day 7 of differentiation.
# On day 7 of differentiation, the medium was replaced with DMEM (high glucose) medium supplemented with 10 μM FSK, 5% StemSure Serum Replacement, 1% AA and 1% ITS-G. The culture was continued with the medium replaced every 2 to 3 days.
# The cells (skeletal muscle precursor cells) on week 3 of differentiation were cryopreserved in the same way as the method described in Example 3. The cryopreserved cells were thawed, plated, and cultured for 2 days in the same way as the method described in Example 3. Then, the medium was replaced with DMEM (high glucose) medium supplemented with 10 μg/mL FGF2, 10 μM FSK, 1% AA, 5% StemSure Serum Replacement and 1% ITS-G. The culture was continued for 2 weeks with the medium replaced every 2 to 3 days.
# The cells thus cultured for 2 weeks were fluorescently immunostained using an antibody recognizing myosin heavy chains (R&D Systems, Inc., clone No.: MF20), an antibody recognizing desmin (Abcam plc.) and Hoechst 33342 for nuclear staining (Dojindo Laboratories). As a result, multinuclear myotube cells costained with both the antibodies were confirmed (FIG. 5, left diagram).
# On week 2 of culture, the medium was replaced with growth factor- and FSK-free DMEM (low glucose) medium supplemented with 1% AA, 5% StemSure Serum Replacement and 1% ITS-G, and the culture was continued with the medium replaced. On week 4 of culture, the cells were fluorescently immunostained using an antibody recognizing α-actinin (Sigma-Aldrich Co. LLC), an antibody recognizing dystrophin (Abcam plc.) and Hoechst 33342. As a result, multinuclear skeletal muscle cells were stained (FIG. 5, right diagram).
# Various changes in conditions were studied with reference to the experiment described above. The frozen cells on weeks 2 and 4 of culture were similarly fluorescently immunostained and evaluated.
# Cells were obtained in the same way as the method described in the preceding section “5-1” except that a culture vessel coated with fibronectin (Sigma-Aldrich Co. LLC) instead of Matrigel was used. After thawing, myotube cells (FIG. 6, left diagram) and skeletal muscle cells (FIG. 6, right diagram) were confirmed on weeks 2 and 4, respectively, of culture.
# 253G1 cells [2] = assay: Somitic mesoderm marker gene expression on day 7 of differentiation; details: 2 to 4 μM CHIR days 0 to 2, then SB (and DM) days 2 to 4, then FSK days 4 to 7
# Description: as §1, with “with 1 to 6” for “with 5”
# (§2) On day 2 of differentiation, change in the expression of pan-mesodermal marker genes BRACHYURY and TBX6 was examined. The change in gene expression was analyzed by the following procedures: total RNA was prepared using RNeasy 96 Kit or RNeasy Mini Kit (Qiagen N.V.), and cDNA was then synthesized from the total RNA using reverse transcriptase (PrimeScript RT reagent kit, Takara Bio Inc.). The obtained cDNA was subjected to real-time PCR using a Taqman probe (Applied Biosystems, Inc.). A sample prepared from the 253G1 cells before the start of differentiation was used as a reference sample. The gene expression levels of BRACHYURY and TBX6 were calculated by the comparative Ct method.
# On day 2 of differentiation, the medium was replaced with B-27 medium supplemented with 1% AA and 10 μM SB (and 0.3 to 1 μM DM). On day 4 of differentiation, the medium was further replaced with B-27 medium supplemented with 1% AA and 10 μM FSK. […]
# On day 7 of differentiation, the expression levels of somitic mesoderm marker genes PAX3 and PAX7 were measured. […]
# 253G1 cells [3] = assay: Pan-mesodermal marker gene expression (real-time PCR) on day 2 of differentiation; details: CHIR 1 to 6 μM, ratio to undifferentiated iPS cells
# Description: as §1, with “with 1 to 6” for “with 5”
# as §2
Molecule,use of one reagent instead of the reference reagent (CHIR or SB) for induction (253G1 cells [1]; Matrigel (section 5-1)),use of combined replacement reagents for induction (253G1 cells [1]; Matrigel (section 5-1)),use of two reagents instead of SB and DM for induction (253G1 cells [1]),use of one reagent instead of the reference reagent (SB or FSK) for induction (253G1 cells [1]),expression of somitic mesoderm marker genes PAX3 and PAX7 (253G1 cells [2]),BRACHYURY and TBX6 expression (253G1 cells [3]),"induction of differentiation into skeletal muscle precursor cells (253G1 cells [1]; Matrigel (section 5-1), 50 μM dbcAMP instead of FSK from day 4 of differentiation)"
6-bromoindirubin-3-oxime [BIO],it was possible,it was possible,–,–,–,–,–
"Cn1cc(C2=C(c3ccc(Cl)cc3Cl)C(=O)NC2=O)c2ccccc21 [5B216763, 3-(2,4-dichlorophenyl)-4-(1-methyl-1H-indol-3-yl)-1H-pyrrole-2,5-dione]",it was possible,it was possible,–,–,–,–,–
"Cc1cccc(-c2nn(C(=S)Nc3ccccc3)cc2-c2ccnc3ccccc23)n1 [A83-01, 3-(6-methyl-2-pyridinyl)-N-phenyl-4-(4-quinolinyl)-1H-pyrazole-1-carbothioamide]",it was possible,it was possible,it was possible,it was possible,–,–,–
"Cc1c[nH]c(-c2cnc(NCCNc3ccc(C#N)cn3)nc2-c2ccc(Cl)cc2Cl)n1 [CHIR, 6-[[2-[[4-(2,4-dichlorophenyl)-5-(4-methyl-1H-imidazol-2-yl)-2-pyrimidinyl]amino]ethyl]amino]nicotinonitrile]",–,–,–,–,high expression,increase in a CHIR concentration-dependent manner,–
"Cl.c1ccc2c(-c3cnn4cc(-c5ccc(N6CCNCC6)cc5)cnc34)ccnc2c1 [LDN193189, 4-[6-(4-piperazin-1-yl-phenyl)-pyrazolo[1,5-α]pyrimidin-3-yl]-quinoline hydrochloride]",–,it was possible,it was possible,–,–,–,–
"CCCC(=O)Nc1ncnc2c1ncn2[C@@H]1O[C@@H]2COP(=O)(O)O[C@H]2[C@H]1OC(=O)CCC [dbcAMP, dibutyryl cAMP]",–,it was possible,–,it was possible,–,–,it was possible to induce differentiation into skeletal muscle precursor cells
